Test results taken from publication PMC6268726, “Inhibition of 11β-HSD1 by Tetracyclic Triterpenoids from Euphorbia kansui” (Molecules, 2012).

Assays:
[1] = biological target: T1, mouse 11β-HSD1 (Mus musculus, UniProt P50172); assay: Inhibition of mouse 11β-HSD1, scintillation proximity assay (SPA) with microsomes from transfected HEK-293 cells; assay type: biochemical; conditions: for IC50: microsomes, NADPH, [3H]cortisone, n = 2; for Mouse HSD2/HSD1: selectivity ratio IC50 mouse 11β-HSD2 / mouse 11β-HSD1
T1 construct: the full-length cDNAs of human or marine 11β-HSD1 and 11β-HSD2 were isolated from the cDNA libraries; made in house; host or cells: HEK-293 (stably transfected, pcDNA3); microsomal fraction
T1 sequence (P50172 whole entry): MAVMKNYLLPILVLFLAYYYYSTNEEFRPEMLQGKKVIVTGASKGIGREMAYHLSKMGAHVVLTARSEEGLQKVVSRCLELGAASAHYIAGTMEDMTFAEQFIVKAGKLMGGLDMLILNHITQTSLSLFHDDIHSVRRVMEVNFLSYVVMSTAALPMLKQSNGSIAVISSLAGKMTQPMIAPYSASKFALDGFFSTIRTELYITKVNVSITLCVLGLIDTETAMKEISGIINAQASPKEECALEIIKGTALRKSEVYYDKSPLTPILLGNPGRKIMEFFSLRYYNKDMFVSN
From the text: (§1) Glucocorticoid hormones play important roles in many biological and physiological processes, including regulation of energy metabolism; inflammatory, immune and stress responses; and cardiovascular homeostasis. The action of glucocorticoid on target tissue is not inevitable dependent on the circulating levels, but is regulated in a tissue-specific manner by the 11β-hydroxysteroid dehydrogenase enzymes (11β-HSD1 and 11β-HSD2), which catalyze the interconversion of active 11-hydroxyglucocorticoids (cortisol in human and corticosterone in rodent) and their respective inert 11-keto forms (cortisone in human and 11-dehyfrocorticosterone in rodent). […] 11β-HSD2 is predominantly expressed in aldosterone target cells such as kidney and colon, where it catalyses the inactivation of glucocorticoids, thereby preventing excessive activation of the mineralocorticoid receptor and sequelae including sodium retention, hypokalemia, and hypertension. We tested the inhibitory effect of compounds on both human and mouse 11β-HSD1 and 11β-HSD2. All tests were done duplicate with glycyrrhizininc acid (human and mouse 11β-HSD1, human 11β-HSD2) and carbenoxolone (mouse 11β-HSD2) as positive control. IC50 (X […] S.D., n = 2) values were calculated by using Prism Version 4 (GraphPad Software, San Diego, CA, USA.).
(§2) Inhibition of compounds on human or mouse 11β-HSD1 and 11β-HSD2 enzymatic activities were determined by the scintillation proxitimity assay (SPA) using microsomes containing 11β-HSD1 or 11β-HSD2 according to the previous studies. Briefly the full-length cDNAs of human or marine 11β-HSD1 and 11β-HSD2 were isolated from the cDNA libraries provided by NIH Mammalian Gene Collection and cloned into pcDNA3 expression vector. HEK-293 cells were transfected with the pcDNA3-dericed expression plasmid and selected by cultivation in the presence of 700 μg/mL of G418. The microsomal fraction overexpressing 11β-HSD1 or 11β-HSD2 was prepared from the HEK-293 cells stable transfected with either 11β-HSD1 or 11β-HSD2 and used as the enzyme source for SPA. Microsomes containing human or mouse 11β-HSD1 was incubated with NADPH and [3H]cortisone, then the product, [3H]cortisol was specifically captured by a monoclonal antibody coupled to protein A-coated SPA beads. The 11β-HSD2 screening was performed by incubating 11β-HSD2 microsomes with [3H]cortisol and NAD^+ and monitoring substrate disappearance. IC50 (X ± S.D., n = 2) values were calculated by using Prism Version 4 (GraphPad Software, San Diego, CA, USA.) with glycyrrhizininc acid and carbenoxolone as positive control.

[2] = biological target: T2, mouse 11β-HSD2 (Mus musculus, UniProt P51661); assay: Inhibition of mouse 11β-HSD2, SPA with microsomes from transfected HEK-293 cells; assay type: biochemical; conditions: [3H]cortisol, NAD+, n = 2
T2 construct: the full-length cDNAs of human or marine 11β-HSD1 and 11β-HSD2 were isolated from the cDNA libraries; made in house; host or cells: HEK-293 (stably transfected, pcDNA3); microsomal fraction
T2 sequence (P51661 1-386): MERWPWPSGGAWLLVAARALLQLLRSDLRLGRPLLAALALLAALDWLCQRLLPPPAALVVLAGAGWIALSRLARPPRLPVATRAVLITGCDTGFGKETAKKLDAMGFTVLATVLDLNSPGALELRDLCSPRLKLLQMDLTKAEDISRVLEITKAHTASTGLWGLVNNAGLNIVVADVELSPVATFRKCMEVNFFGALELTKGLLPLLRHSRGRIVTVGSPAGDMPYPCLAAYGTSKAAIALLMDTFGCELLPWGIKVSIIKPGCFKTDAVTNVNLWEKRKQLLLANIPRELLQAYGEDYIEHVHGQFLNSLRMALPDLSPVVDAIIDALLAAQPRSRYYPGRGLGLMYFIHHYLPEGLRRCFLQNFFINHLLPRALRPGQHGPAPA
From the text: as §1, §2

[3] = biological target: T3, human 11β-HSD1 (Homo sapiens, UniProt P28845); assay: Inhibition of human 11β-HSD1, SPA with microsomes from transfected HEK-293 cells; assay type: biochemical; conditions: for IC50: microsomes, NADPH, [3H]cortisone, n = 2; for Human HSD2/HSD1: selectivity ratio IC50 human 11β-HSD2 / human 11β-HSD1
T3 construct: the full-length cDNAs of human or marine 11β-HSD1 and 11β-HSD2 were isolated from the cDNA libraries; made in house; host or cells: HEK-293 (stably transfected, pcDNA3); microsomal fraction
T3 sequence (P28845 whole entry): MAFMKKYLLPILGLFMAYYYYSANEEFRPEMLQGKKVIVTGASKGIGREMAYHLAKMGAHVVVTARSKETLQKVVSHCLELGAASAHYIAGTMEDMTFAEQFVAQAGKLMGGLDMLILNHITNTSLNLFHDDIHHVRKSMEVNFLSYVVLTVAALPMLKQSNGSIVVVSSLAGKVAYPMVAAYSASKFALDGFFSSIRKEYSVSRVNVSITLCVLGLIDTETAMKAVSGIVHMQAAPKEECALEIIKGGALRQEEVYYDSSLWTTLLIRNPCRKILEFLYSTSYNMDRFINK
From the text: as §1, §2

[4] = biological target: T4, human 11β-HSD2 (Homo sapiens, UniProt P80365); assay: Inhibition of human 11β-HSD2, SPA with microsomes from transfected HEK-293 cells; assay type: biochemical; conditions: [3H]cortisol, NAD+, n = 2
T4 construct: the full-length cDNAs of human or marine 11β-HSD1 and 11β-HSD2 were isolated from the cDNA libraries; made in house; host or cells: HEK-293 (stably transfected, pcDNA3); microsomal fraction
T4 sequence (P80365 1-405): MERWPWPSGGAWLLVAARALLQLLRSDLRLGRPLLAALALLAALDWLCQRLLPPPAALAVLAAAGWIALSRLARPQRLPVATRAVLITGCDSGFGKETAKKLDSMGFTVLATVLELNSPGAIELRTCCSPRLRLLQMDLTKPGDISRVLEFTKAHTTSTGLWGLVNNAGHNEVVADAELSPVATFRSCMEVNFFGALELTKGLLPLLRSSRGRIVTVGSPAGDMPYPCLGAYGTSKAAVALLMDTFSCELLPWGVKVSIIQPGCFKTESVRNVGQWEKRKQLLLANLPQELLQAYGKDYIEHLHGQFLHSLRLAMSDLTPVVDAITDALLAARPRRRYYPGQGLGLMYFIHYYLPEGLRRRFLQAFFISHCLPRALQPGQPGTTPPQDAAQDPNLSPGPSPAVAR
From the text: as §1, §2

Row | Structure (SMILES) | IC50 [1] [µM] | Mouse HSD2/HSD1 [1] | IC50 [2] [µM] | IC50 [3] [µM] | Human HSD2/HSD1 [3] | IC50 [4] [µM] | melting point [°C]
1 | C=C(CC[C@](C)(O)[C@@H]1CC[C@]2(C)C3CCC4C(C)(C)[C@@H](O)CC[C@]4(C)C3CC[C@@]12C)C(C)C (stereo partly drawn) [Compound 1, Euphane-3β,20-dihydroxy-24-ene] | 0.0784 | >12748 | > 1000 | 0.0349 | 234.6 | 8.18 | –
2 | C=C(C)[C@@H](O)CC[C@@H](C)[C@@H]1CC[C@]2(C)C3=C(CC[C@@]12C)[C@@]1(C)CC[C@H](O)C(C)(C)C1CC3 (stereo partly drawn) [Compound 5, (24R)-Eupha-8,25-diene-3β,24-diol] | 0.0495 | >20218 | > 1000 | 0.0265 | 63.7 | 1.69 | –
3 | CC(C)=CCCC(C)C1CCC2(C)C3=C(CCC12C)C1(C)CCC(O)C(C)(C)C1CC3=O (stereo not shown) [Compound 4, Kansenone] | 0.0134 | >74850 | > 1000 | 0.00281 | 38 | 0.107 | –
4 | C[C@H](C/C=C/C(C)(C)O)[C@@H]1CC[C@]2(C)C3=C(CC[C@@]12C)[C@@]1(C)CC[C@H](O)C(C)(C)C1CC3 (stereo partly drawn) [Compound 6, (20R,23E)-Eupha-8,23-diene-3β,25-diol] | 0.295 | >3393 | > 1000 | 0.016 | 41.7 | 0.666 | 132 to 133
5 | CC(C)=CCC[C@@H](C)[C@@H]1CC[C@]2(C)C(=O)[C@]3(CC[C@@]12C)[C@@H](O)CC1C(C)(C)[C@@H](O)CC[C@@]13C (stereo partly shown) [Compound 2, Kansuinone] | 1.08 | >928 | > 1000 | 1.11 | 2.35 | 2.63 | –
6 | CC(C)=CCC[C@@H](C)[C@@H]1CC[C@]2(C)C3=C(CC[C@@]12C)[C@@]1(C)CC[C@H](O)C(C)(C)[C@@H]1CC3 [Compound 3, Euphol] | 0.0805 | >12419 | > 1000 | 0.0161 | 24.6 | 0.395 | –
